According to ChEMBL document CHEMBL4837183, “Antiproliferative Bufadienolides from the Bulbs of Drimia altissima” (2021):

How the values were obtained:
Format in all cases: functional
NCI-H23 = assay: Growth inhibition of human NCI-H23 cells measured after 48 hrs by SRB assay
CAKI-1 = assay: Growth inhibition of human CAKI-1 cells measured after 48 hrs by SRB assay
OVCAR-8 = assay: Growth inhibition of human OVCAR-8 cells measured after 48 hrs by SRB assay
DU-145 = assay: Growth inhibition of human DU-145 cells measured after 48 hrs by SRB assay
IGROV-1 = assay: Growth inhibition of human IGROV-1 cells measured after 48 hrs by SRB assay
ACHN = assay: Growth inhibition of human ACHN cells measured after 48 hrs by SRB assay
NCI/ADR-RES = assay: Growth inhibition of human NCI/ADR-RES cells measured after 48 hrs by SRB assay
SK-MEL-5 = assay: Growth inhibition of human SK-MEL-5 cells measured after 48 hrs by SRB assay
HT-29 = assay: Growth inhibition of human HT-29 cells measured after 48 hrs by SRB assay
SK-OV-3 = assay: Growth inhibition of human SK-OV-3 cells measured after 48 hrs by SRB assay
SNB-19 = assay: Growth inhibition of human SNB-19 cells measured after 48 hrs by SRB assay
KM12 = assay: Growth inhibition of human KM12 cells measured after 48 hrs by SRB assay
HOP-92 = assay: Growth inhibition of human HOP-92 cells measured after 48 hrs by SRB assay
K562 = assay: Growth inhibition of human K562 cells measured after 48 hrs by SRB assay
Malme-3M = assay: Growth inhibition of human Malme-3M cells measured after 48 hrs by SRB assay
HL-60 = assay: Growth inhibition of human HL-60 cells measured after 48 hrs by SRB assay
COLO 205 = assay: Growth inhibition of human COLO 205 cells measured after 48 hrs by SRB assay
OVCAR-5 = assay: Growth inhibition of human OVCAR-5 cells measured after 48 hrs by SRB assay
SF-295 = assay: Growth inhibition of human SF-295 cells measured after 48 hrs by SRB assay
SW-620 = assay: Growth inhibition of human SW-620 cells measured after 48 hrs by SRB assay
SNB-75 = assay: Growth inhibition of human SNB-75 cells measured after 48 hrs by SRB assay
MDA-MB-468 = assay: Growth inhibition of human MDA-MB-468 cells measured after 48 hrs by SRB assay
BT-549 = assay: Growth inhibition of human BT-549 cells measured after 48 hrs by SRB assay
A498 = assay: Growth inhibition of human A498 cells measured after 48 hrs by SRB assay
NCI-H226 = assay: Growth inhibition of human NCI-H226 cells measured after 48 hrs by SRB assay
A549 = assay: Growth inhibition of human A549 cells measured after 48 hrs by SRB assay
SF-268 = assay: Growth inhibition of human SF-268 cells measured after 48 hrs by SRB assay
LOX IMVI = assay: Growth inhibition of human LOX IMVI cells measured after 48 hrs by SRB assay
TK-10 = assay: Growth inhibition of human TK-10 cells measured after 48 hrs by SRB assay
NCI-H522 = assay: Growth inhibition of human NCI-H522 cells measured after 48 hrs by SRB assay
OVCAR-3 = assay: Growth inhibition of human OVCAR-3 cells measured after 48 hrs by SRB assay
HCC 2998 = assay: Growth inhibition of human HCC 2998 cells measured after 48 hrs by SRB assay
UACC-62 = assay: Growth inhibition of human UACC-62 cells measured after 48 hrs by SRB assay
UACC-257 = assay: Growth inhibition of human UACC-257 cells measured after 48 hrs by SRB assay
CCRF-CEM = assay: Growth inhibition of human CCRF-CEM cells measured after 48 hrs by SRB assay
NCI-H460 = assay: Growth inhibition of human NCI-H460 cells measured after 48 hrs by SRB assay
HCT-116 = assay: Growth inhibition of human HCT-116 cells measured after 48 hrs by SRB assay
HCT-15 = assay: Growth inhibition of human HCT-15 cells measured after 48 hrs by SRB assay
PC-3 = assay: Growth inhibition of human PC-3 cells measured after 48 hrs by SRB assay
MDA-MB-231 = assay: Growth inhibition of human MDA-MB-231 cells measured after 48 hrs by SRB assay
U-251 = assay: Growth inhibition of human U-251 cells measured after 48 hrs by SRB assay
HOP-62 = assay: Growth inhibition of human HOP-62 cells measured after 48 hrs by SRB assay
UO-31 = assay: Growth inhibition of human UO-31 cells measured after 48 hrs by SRB assay
M14 = assay: Growth inhibition of human M14 cells measured after 48 hrs by SRB assay
MDA-MB-435 = assay: Growth inhibition of human MDA-MB-435 cells measured after 48 hrs by SRB assay
SN12C = assay: Growth inhibition of human SN12C cells measured after 48 hrs by SRB assay
T47D = assay: Growth inhibition of human T47D cells measured after 48 hrs by SRB assay
MCF7 = assay: Growth inhibition of human MCF7 cells measured after 48 hrs by SRB assay
SR = assay: Growth inhibition of human SR cells measured after 48 hrs by SRB assay
NCI-H322M = assay: Growth inhibition of human NCI-H322M cells measured after 48 hrs by SRB assay
MOLT-4 = assay: Growth inhibition of human MOLT-4 cells measured after 48 hrs by SRB assay
786-0 = assay: Growth inhibition of human 786-0 cells measured after 48 hrs by SRB assay
SF-539 = assay: Growth inhibition of human SF-539 cells measured after 48 hrs by SRB assay
RXF 393 = assay: Growth inhibition of human RXF 393 cells measured after 48 hrs by SRB assay
Hs-578T = assay: Growth inhibition of human Hs-578T cells measured after 48 hrs by SRB assay
SK-MEL-2 = assay: Growth inhibition of human SK-MEL-2 cells measured after 48 hrs by SRB assay
SK-MEL-28 = assay: Growth inhibition of human SK-MEL-28 cells measured after 48 hrs by SRB assay

## C[C@]12CC[C@H](O[C@@H]3O[C@H](CO)[C@@H](O)[C@H](O)[C@H]3O)C=C1CC[C@@H]1[C@@H]2[C@@H](O)C[C@]2(C)[C@@H](c3ccc(=O)oc3)CC[C@]12O
NCI-H23
  GI50: 27 nM
CAKI-1
  GI50: 41 nM
OVCAR-8
  GI50: 65 nM
DU-145
  GI50: 31 nM
IGROV-1
  GI50: 64 nM
ACHN
  GI50: 10 nM
NCI/ADR-RES
  GI50: 33 nM
SK-MEL-5
  GI50: 55 nM
HT-29
  GI50: 81 nM
SK-OV-3
  GI50: 74 nM
SNB-19
  GI50: 108 nM
KM12
  GI50: 91 nM
HOP-92
  GI50: 66 nM
K562
  GI50: 80 nM
Malme-3M
  GI50: 63 nM
HL-60
  GI50: 50 nM
COLO 205
  GI50: 102 nM
OVCAR-5
  GI50: 60 nM
SF-295
  GI50: 61 nM
SW-620
  GI50: 51 nM
SNB-75
  GI50: 82 nM
MDA-MB-468
  GI50: 109 nM
BT-549
  GI50: 27 nM
A498
  GI50: 38 nM
NCI-H226
  GI50: 47 nM
A549
  GI50: 15 nM
SF-268
  GI50: 18 nM
LOX IMVI
  GI50: 64 nM
TK-10
  GI50: 31 nM
NCI-H522
  GI50: 9 nM
OVCAR-3
  GI50: 36 nM
HCC 2998
  GI50: 136 nM
UACC-62
  GI50: 7 nM
UACC-257
  GI50: 93 nM
CCRF-CEM
  GI50: 16 nM
NCI-H460
  GI50: 13 nM
HCT-116
  GI50: 15 nM
HCT-15
  GI50: 53 nM
PC-3
  GI50: 46 nM
MDA-MB-231
  GI50: 193 nM
U-251
  GI50: 79 nM
HOP-62
  GI50: 26 nM
UO-31
  GI50: 34 nM
M14
  GI50: 83 nM
MDA-MB-435
  GI50: 73 nM
SN12C
  GI50: 15 nM
T47D
  GI50: 78 nM
MCF7
  GI50: 42 nM
SR
  GI50: 55 nM
NCI-H322M
  GI50: 30 nM
MOLT-4
  GI50: 11 nM
786-0
  GI50: 38 nM
SF-539
  GI50: 31 nM
RXF 393
  GI50: 20 nM
Hs-578T
  GI50: 25 nM
SK-MEL-2
  GI50: 59 nM
SK-MEL-28
  GI50: 107 nM

## C[C@]12C[C@H](O)[C@H]3[C@@H](CCC4=C[C@@H](O[C@@H]5O[C@H](CO)[C@@H](O)[C@H](O)[C@H]5O)CC[C@@]43CO)[C@@]1(O)CC[C@@H]2c1ccc(=O)oc1
NCI-H23
  GI50: 8 nM
CAKI-1
  GI50: 8 nM
OVCAR-8
  GI50: 15 nM
DU-145
  GI50: 6 nM
IGROV-1
  GI50: 16 nM
ACHN
  GI50: 5 nM
NCI/ADR-RES
  GI50: 8 nM
SK-MEL-5
  GI50: 20 nM
HT-29
  GI50: 15 nM
SK-OV-3
  GI50: 51 nM
SNB-19
  GI50: 48 nM
KM12
  GI50: 29 nM
HOP-92
  GI50: 22 nM
K562
  GI50: 30 nM
Malme-3M
  GI50: 17 nM
HL-60
  GI50: 7 nM
COLO 205
  GI50: 43 nM
OVCAR-5
  GI50: 17 nM
SF-295
  GI50: 11 nM
SW-620
  GI50: 17 nM
SNB-75
  GI50: 23 nM
MDA-MB-468
  GI50: 44 nM
BT-549
  GI50: 4 nM
A498
  GI50: 12 nM
NCI-H226
  GI50: 22 nM
A549
  GI50: 4 nM
SF-268
  GI50: 7 nM
LOX IMVI
  GI50: 18 nM
TK-10
  GI50: 8 nM
NCI-H522
  GI50: 6 nM
OVCAR-3
  GI50: 8 nM
HCC 2998
  GI50: 52 nM
UACC-62
  GI50: 25 nM
UACC-257
  GI50: 42 nM
CCRF-CEM
  GI50: 7 nM
NCI-H460
  GI50: 6 nM
HCT-116
  GI50: 5 nM
HCT-15
  GI50: 17 nM
PC-3
  GI50: 13 nM
MDA-MB-231
  GI50: 53 nM
U-251
  GI50: 25 nM
HOP-62
  GI50: 6 nM
UO-31
  GI50: 9 nM
M14
  GI50: 31 nM
MDA-MB-435
  GI50: 33 nM
SN12C
  GI50: 6 nM
T47D
  GI50: 24 nM
MCF7
  GI50: 9 nM
SR
  GI50: 24 nM
NCI-H322M
  GI50: 7 nM
MOLT-4
  GI50: 7 nM
786-0
  GI50: 7 nM
SF-539
  GI50: 3 nM
RXF 393
  GI50: 5 nM
Hs-578T
  GI50: 6 nM
SK-MEL-2
  GI50: 45 nM
SK-MEL-28
  GI50: 37 nM
